The record followed here is patent US20230365592A1 (Agios Pharmaceuticals, Inc., priority 2022, published 2023).

In the experiment the target is T1, human PAH with the R408W mutation (Homo sapiens, UniProt P00439, R408W).
T1 construct: expressed in transfected cells
T1 sequence (P00439 1-452 R408W): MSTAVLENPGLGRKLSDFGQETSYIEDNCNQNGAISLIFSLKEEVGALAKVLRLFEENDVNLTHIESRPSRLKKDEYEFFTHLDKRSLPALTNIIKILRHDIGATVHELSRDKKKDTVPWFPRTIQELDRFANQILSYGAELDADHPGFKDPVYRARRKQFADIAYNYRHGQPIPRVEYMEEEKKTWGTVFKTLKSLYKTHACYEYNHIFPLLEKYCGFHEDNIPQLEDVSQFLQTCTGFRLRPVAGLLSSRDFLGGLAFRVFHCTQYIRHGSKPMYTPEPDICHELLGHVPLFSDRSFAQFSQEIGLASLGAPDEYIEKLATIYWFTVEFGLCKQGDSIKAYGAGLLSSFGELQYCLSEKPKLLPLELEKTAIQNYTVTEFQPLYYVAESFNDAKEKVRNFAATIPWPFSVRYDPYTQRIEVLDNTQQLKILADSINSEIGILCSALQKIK
Nature of the experiment: Cell Based Phenylalanine Flux Assay.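 Note: after compound treatment, cells received sepiapterin plus isotope-labelled Phenylalanine for 4 hours, then labelled Tyrosine in the medium was quantified, 10-point 2-fold dilution series run in duplicate.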 The note with it: 13C-Tyrosine by LC-MS, average where tested multiple times, read-out: AC50.

[1] abbreviates: A375 cells expressing R408W PAH, 24 hrs with compound, then 20 µM sepiapterin and 800 µM 13C9,15N-Phenylalanine for 4 hours.
Setting [2] is: A375 cells expressing human R408W PAH, 24 hrs compound incubation.
Where [3] appears, read: A375 cells expressing human PAH R408W, 24 hrs compound incubation.

Read-outs that look alike come from different tables or passages of the source.

On to `FC(F)c1cccn2nc([C@H]3c4nc[nH]c4CCN3c3nc4ccccc4o3)cc12` (single isomer, unassigned), for which the AC50 (commonly the midpoint of the concentration-response curve, whichever way the signal moves) under setting [1] is greater than 5 µM. Still for that read-out and setting: under `COc1cccn2nc(C3c4nc[nH]c4CCN3C(=O)c3nnc(-c4ccn(C)n4)o3)cc12` (single isomer, unassigned) stands greater than 5 µM; under `FC(F)c1cccc2cc([C@H]3c4nc[nH]c4CCN3c3nnc(C4CCC4)o3)nn12` (single isomer, unassigned), greater than 5 µM. The same measure, in the same setting: the same measure for `Fc1cccn2nc([C@H]3c4nc[nH]c4CCN3c3nnc(-c4cccnc4)o3)cc12` (single isomer, unassigned): greater than 5 µM; for `Cc1cccn2nc([C@H]3c4nc[nH]c4CCN3c3nnc(-c4cccnc4)o3)cc12` (single isomer, unassigned): greater than 5 µM. Same read-out and setting: the same measure for `Cc1cccn2nc([C@H]3c4nc[nH]c4CCN3C(=O)c3nnc(N4CCOCC4)o3)cc12` (single isomer, unassigned): greater than 5 µM; for `O=C(c1ocnc1C1CC1)N1CCc2[nH]cnc2[C@@H]1c1cc2cccc(C(F)(F)F)n2n1` (single isomer, unassigned): greater than 5 µM.

As to `N#Cc1ncoc1C(=O)N1CCc2[nH]cnc2[C@@H]1c1nn2ccccc2c1Br` (single isomer, unassigned), under setting [1], the half-maximal activity concentration (AC50) lay within 1 to 5 µM.

As for `O=C(c1cnco1)N1CCc2[nH]cnc2[C@@H]1c1cc2ccccn2n1` (single isomer, unassigned), the AC50 under setting [1] lay within 1 to 5 µM. The same measure, in the same setting: under `Cc1cccc2cc([C@H]3c4nc[nH]c4CCN3C(=O)c3cnn4cc(C5CC5)ccc34)nn12` (single isomer, unassigned) stands greater than 5 µM; under `Fc1ccc(-c2nnc(N3CCc4[nH]cnc4[C@@H]3c3cc4ccccn4n3)o2)nc1` (single isomer, unassigned), greater than 5 µM; under `Cn1cc(N2CCc3[nH]cnc3[C@H]2c2cc3ccccn3n2)cn1` (single isomer, unassigned), greater than 5 µM. On the same count and under the same terms, the same measure for `Cn1ccc(-c2ncc(C(=O)N3CCc4[nH]cnc4[C@H]3c3cc4ccccn4n3)o2)n1` (single isomer, unassigned): 1 to 5 µM; for `CC1(c2nnc(-n3cnc4c3[C@@H](c3cc5ccccn5n3)NCC4)o2)CC1` (single isomer, unassigned): 1 to 5 µM. Still for that read-out and setting: under `O=C(c1nnc(-c2cc[nH]n2)o1)N1CCc2[nH]cnc2[C@H]1c1cc2ccccn2n1` (single isomer, unassigned) stands 1 to 5 µM; under `Cc1cccn2nc([C@@H]3c4nc[nH]c4CCN3c3nnc(C4CC(F)(F)C4)o3)cc12` (single isomer, unassigned), 1 to 5 µM; under `Cn1cc(-c2nnc(C(=O)N3CCc4[nH]cnc4C3c3nn4ccccc4c3Br)o2)cn1` (single isomer, unassigned), 1 to 5 µM. `O=C(c1nnc(-c2cn[nH]c2)o1)N1CCc2[nH]cnc2[C@H]1c1cc2c(F)cccn2n1` (single isomer, unassigned): the AC50 under setting [1] lay within 1 to 5 µM. Same read-out and setting: under `COc1cccn2nc([C@@H]3c4nc[nH]c4CCN3C(=O)c3nnc(-c4ccn(C)n4)o3)cc12` (single isomer, unassigned) stands 1 to 5 µM.

In the case of `COc1cccn2nc([C@@H]3c4nc[nH]c4CCN3c3nnc(C)o3)cc12` (single isomer, unassigned), under setting [1], the AC50 was 1 to 5 µM. Same read-out and setting: under `Nc1cnc(N2CCc3[nH]cnc3[C@H]2c2cc3cccc(C(F)F)n3n2)nc1` (single isomer, unassigned) stands greater than 5 µM; under `Cc1nnc(N2CCc3[nH]cnc3[C@H]2c2cc3cccc(Cl)n3n2)o1` (single isomer, unassigned), 1 to 5 µM; under `Cc1nc(-c2ccccn2)oc1C(=O)N1CCc2[nH]cnc2[C@H]1c1cc2ccccn2n1` (single isomer, unassigned), 1 to 5 µM. On the same count and under the same terms, the same measure for `Cc1nc(C(C)(C)O)oc1C(=O)N1CCc2[nH]cnc2[C@H]1c1cc2ccccn2n1` (single isomer, unassigned): 1 to 5 µM. Same read-out and setting: under `FC(F)(F)c1cccn2nc([C@@H]3c4nc[nH]c4CCN3c3nnc(-c4ncccn4)o3)cc12` (single isomer, unassigned) stands 1 to 5 µM; under `O=C(c1nnc(-c2ncccn2)o1)N1CCc2[nH]cnc2[C@H]1c1cc2c(C3CC3)cccn2n1` (single isomer, unassigned), greater than 5 µM; under `Cc1cccn2nc([C@@H]3c4nc[nH]c4CCN3c3nnc(-c4ncccn4)o3)cc12` (single isomer, unassigned), 1 to 5 µM. For the compound `O=C(c1cnc(-c2cnccn2)o1)N1CCc2[nH]cnc2C1c1cc2ccccn2n1` (single isomer, unassigned), under setting [1], the AC50 lay in the range of 1 to 5 µM.

With `COc1cccn2nc([C@@H]3c4nc[nH]c4CCN3c3nnc(C4CC4)o3)cc12` (single isomer, unassigned), the AC50 under setting [1] fell in the range of 1 to 5 µM. Same read-out and setting: under `Cc1ncccc1-c1nnc(N2CCc3[nH]cnc3[C@H]2c2cc3c(C4CC4)cccn3n2)o1` (single isomer, unassigned) stands 1 to 5 µM; under `Fc1cccn2nc(C3c4nc[nH]c4CCN3c3nnc(-c4cccnc4)o3)cc12` (single isomer, unassigned), 1 to 5 µM; under `N#Cc1ncoc1C(=O)N1CCc2[nH]cnc2[C@H]1c1nn2ccccc2c1Br` (single isomer, unassigned), 1 to 5 µM.

Regarding `Cn1ncc(C(=O)N2CCc3[nH]cnc3[C@H]2c2cc3ccccn3n2)c1C(F)F` (single isomer, unassigned), the concentration at half-maximal activity (AC50) under setting [1] lay within 1 to 5 µM. For `CN(C)C(=O)c1nnc(N2CCc3[nH]cnc3[C@H]2c2cc3c(C(F)(F)F)cccn3n2)o1` (single isomer, unassigned), under setting [1], the AC50 lay within 1 to 5 µM.

With `COc1cccn2nc([C@@H]3c4nc[nH]c4CCN3C(=O)c3cnn4cc(CN(C)C)ccc34)cc12` (single isomer, unassigned), the AC50 under setting [1] was 1 to 5 µM.

With `CN(C)CCc1ccc2c(C(=O)N3CCc4[nH]cnc4[C@H]3c3cc4ccccn4n3)cnn2c1` (single isomer, unassigned), the AC50 under setting [1] is greater than 5 µM.

`CN(C)Cc1ccc2c(C(=O)N3CCc4[nH]cnc4C3c3cc4ccccn4n3)cnn2c1` (single isomer, unassigned): the AC50 under setting [1] was 1 to 5 µM. In the case of `COC(=O)N1CC(C(=O)N2CCc3[nH]cnc3[C@H]2c2cc3ccccn3n2)C1` (single isomer, unassigned), the concentration at half-maximal activity (AC50) under setting [1] is greater than 5 µM. On to `Cn1ccc(-c2nnc(C(=O)N3CCc4[nH]cnc4[C@H]3c3cc4c(C(F)(F)F)cccn4n3)o2)n1` (single isomer, unassigned) [Example 836], for which, under setting [2], the AC50 was less than 0.5 µM. On the same count and under the same terms, the same measure for `CC(O)c1nc(Br)c(C(=O)N2CCc3[nH]cnc3[C@H]2c2cc3ccccn3n2)o1` (single isomer, unassigned) [Example 996]: less than 0.5 µM; for `CC(O)c1nc(Br)c(C(=O)N2CCc3[nH]cnc3[C@H]2c2cc3ccccn3n2)o1` (single isomer, unassigned) [Example 997]: less than 0.5 µM. For the compound `Fc1cccc(F)c1-c1nnc(N2CCc3[nH]cnc3[C@@H]2c2cc3ccccn3n2)o1` (single isomer, unassigned) [Example 1842], the AC50 under setting [3] is greater than 5 µM.

In the case of `CC(O)c1nc(Cl)c(C(=O)N2CCc3[nH]cnc3[C@H]2c2cc3ccccn3n2)o1` (single isomer, unassigned) [Example 2376], under setting [3], the concentration at half-maximal activity (AC50) is 1 to 5 µM. Same read-out and setting: under `CC(O)c1nc(Cl)c(C(=O)N2CCc3[nH]cnc3[C@H]2c2cc3ccccn3n2)o1` (single isomer, unassigned) [Example 2377] stands 1 to 5 µM. For `O=C(c1nnc(CCN2CC(F)C2)o1)N1CCc2[nH]cnc2C1c1cc2ccccn2n1` (stereo not drawn) [2-[2-(3-fluoroazetidin-1-yl)ethyl]-5-(4-{pyrazolo[1,5-a]pyridin-2-yl}-1H,4H,5H,6H,7H-imidazo[4,5-c]pyridine-5-carbonyl)-1,3,4-oxadiazole], the concentration at half-maximal activity (AC50) under setting [1] was greater than 5 µM. Still for that read-out and setting: under `O=C(C1CC1(F)F)N1CCc2[nH]cnc2C1c1cc2ccccn2n1` [4S enantiomer of 5-[(1S)-2,2-difluorocyclopropanecarbonyll-4] stands 1 to 5 µM; under `CC(O)c1nnc(C(=O)N2CCc3[nH]cnc3C2c2cc3ccccn3n2)o1` [4S enantiomer of (1R)-1-{5-[4-{pyrazolo[1,5-a]pyridin-2-yl}-], 1 to 5 µM; under `Cc1nc(C(C)O)oc1C(=O)N1CCc2[nH]cnc2C1c1cc2ccccn2n1` [4S enantiomer of (1S)-1-14-methyl-5-[4-{pyrazolo[1,5-a]pyrid], 1 to 5 µM.

In the case of `O=C(c1cnn2ccccc12)N1CCc2[nH]cnc2[C@H]1c1cc2ccccn2n1` [Example 600, (S)-(4-(pyrazolo[1,5-a]pyridin-2-yl)-6,7-dihydro-1H-imidazo[4,5-c]pyridin-5(4H)-yl)(pyrazolo[1,5-a]pyridin-3-yl)methanone], the AC50 under setting [2] was 0.5 to 1 µM.

For `O=C(c1cnn2ccccc12)N1CCc2[nH]cnc2[C@@H]1c1cc2ccccn2n1` [Example 601, (R)-(4-(pyrazolo[1,5-a]pyridin-2-yl)-6,7-dihydro-1H-imidazo[4,5-c]pyridin-5(4H)-yl)(pyrazolo[1,5-a]pyridin-3-yl)methanone], the concentration at half-maximal activity (AC50) under setting [2] is greater than 5 µM. Regarding `O=C(c1cncs1)N1CCc2[nH]cnc2[C@H]1c1cc2ccccn2n1` [Example 602, (S)-(4-(pyrazolo[1,5-a]pyridin-2-yl)-6,7-dihydro-1H-imidazo[4,5-c]pyridin-5(4H)-yl)(thiazol-5-yl)methanone], the half-maximal activity concentration (AC50) under setting [2] was less than 0.5 µM.
